Results as given in patent US8987192B2, “Potent and selective mediators of cholesterol efflux” (The Regents of the University of California, priority 2006, dated 2015).

What was measured:
J774 macrophages = experiment: Pretreatment of macrophages, then Apo A-I-mediated cholesterol efflux; format: cell-based, mouse; conditions: 4 hour pretreatment, vs serum-free medium alone; Apo A-I 10 μg/ml
Method: To determine whether conditioning of macrophages with the polypeptide of SEQ ID NO:4 upregulates cholesterol efflux to native apolipoproteins, J774 macrophages labeled with [^3H]cholesterol were induced for the ABCA1 response using a cAMP analog (24 h). This was followed by a 4 hour treatment (no cAMP) with serum-free medium alone or medium containing the polypeptide of SEQ ID NO:4. After 4 h with no cAMP, cholesterol efflux was initiated by adding fresh medium containing Apo A-I (10 μg/ml). Polypeptide of SEQ ID NO:4 pretreatment produced a 40% increase in Apo A-I-mediated cholesterol efflux from macrophages, compared to pretreatment with serum-free medium alone (see, FIG. 6).

[1] = system: Apolipoprotein E deficient (ApoE −/−) mice; experiment: In vivo cholesterol efflux and Reverse Cholesterol Transport from injected macrophage foam-cells; parameters: species or system mouse; conditions: 20 mg/kg IP
Method: Apolipoprotein E deficient (ApoE −/−) mice at 6 months of age were used to evaluate the ability of the polypeptide of SEQ ID NO:4 to stimulate cholesterol efflux and Reverse Cholesterol Transport (RCT) in vivo. [^3H]cholesterol-labeled macrophage foam-cells (i.e., loaded with acetylated LDL) were injected into the intraperitoneal (IP) cavity of Apo E −/− mice in the presence and absence of the polypeptide of SEQ ID NO:4 (20 mg/kg). The polypeptide stimulated cholesterol efflux in vivo, as judged by a pronounced (2-fold) increase in the levels of macrophage derived [^3H]cholesterol appearing in plasma at 8 and 24 hour post-injection, compared to saline vehicle alone (see, FIG. 20). This was accompanied by a greater than 2-fold increase in fecal sterol secretion at 8 and 24 h. In general, the effects of the peptide were relatively long-lived persisting up to 48 h.

Interleukin-6 = experiment: Serum Interleukin-6 in ApoE -/- mice (fluorescent bead immunoassay); format: in vivo, mouse
Description: Apolipoprotein E deficient (ApoE −/−) mice at 6 weeks old were given a Western diets for 18 weeks before commencing treatment. Once daily, intraperitoneal injections were given as saline or the polypeptide of SEQ ID NO:4 (n=6-7 per group). At termination, serum was collected and analyzed for Interleukin-6 concentration by a fluorescent bead immunoassay utilizing flow cytometry (BMS820FF). Mice treated with the polypeptide of SEQ ID NO:4 had about 68% lower serum levels of IL-6 (see, FIG. 22).

ABCA1 = ABCA1 (Mus musculus, UniProt P41233); experiment: ABCA1 protein stabilization in J774 macrophages (Western blot); format: cell-based; parameters: endogenous in cells; host or cells: J774 mouse macrophages; conditions: 6 hours serum-free medium, no cAMP
Method: In some embodiments, the stabilization of ABCA is measured by direct measurement of ABCA (e.g., ABCA protein, or nucleic acid) using a cell based assay. Cell based assays can be performed in any cells in which ABCA is expressed (e.g., J774 macrophages), including cells which have been transfected with ABCA (e.g. HeLa cells). Any cell type can be used. For example, J774 macrophages can be used to assess relative ABCA1 protein levels in the presence and absence of polypeptides of the invention. The cells are first contacted with a compound that will induce ABCA (e.g., cAMP or a cAMP analogue such as, 8-bromo-cAMP) to upregulate ABCA (e.g., ABCA1) expression, then exposed to […] polypeptides of the invention in the absence of the cAMP stimulus to evaluate whether ABCA1 protein was stabilized or degraded. Relative levels of ABCA1 protein can be assessed using any means known in the art including, e.g., immunoblot analysis of cell membranes (Oram et al., J. Biol. Chem., 278:52379-52385 (2003)) or hybridization of nucleic acid probes to ABCA mRNA.
To test whether the polypeptides of the present invention stabilize cellular ABCA1 protein concentrations, J774 mouse macrophages were treated with a cAMP analogue (24 h) to upregulate ABCA1 expression. […] ABCA1 protein in cell lysates was determined by Western blot analysis. […]

Chain of ABCA1 (P41233 whole entry): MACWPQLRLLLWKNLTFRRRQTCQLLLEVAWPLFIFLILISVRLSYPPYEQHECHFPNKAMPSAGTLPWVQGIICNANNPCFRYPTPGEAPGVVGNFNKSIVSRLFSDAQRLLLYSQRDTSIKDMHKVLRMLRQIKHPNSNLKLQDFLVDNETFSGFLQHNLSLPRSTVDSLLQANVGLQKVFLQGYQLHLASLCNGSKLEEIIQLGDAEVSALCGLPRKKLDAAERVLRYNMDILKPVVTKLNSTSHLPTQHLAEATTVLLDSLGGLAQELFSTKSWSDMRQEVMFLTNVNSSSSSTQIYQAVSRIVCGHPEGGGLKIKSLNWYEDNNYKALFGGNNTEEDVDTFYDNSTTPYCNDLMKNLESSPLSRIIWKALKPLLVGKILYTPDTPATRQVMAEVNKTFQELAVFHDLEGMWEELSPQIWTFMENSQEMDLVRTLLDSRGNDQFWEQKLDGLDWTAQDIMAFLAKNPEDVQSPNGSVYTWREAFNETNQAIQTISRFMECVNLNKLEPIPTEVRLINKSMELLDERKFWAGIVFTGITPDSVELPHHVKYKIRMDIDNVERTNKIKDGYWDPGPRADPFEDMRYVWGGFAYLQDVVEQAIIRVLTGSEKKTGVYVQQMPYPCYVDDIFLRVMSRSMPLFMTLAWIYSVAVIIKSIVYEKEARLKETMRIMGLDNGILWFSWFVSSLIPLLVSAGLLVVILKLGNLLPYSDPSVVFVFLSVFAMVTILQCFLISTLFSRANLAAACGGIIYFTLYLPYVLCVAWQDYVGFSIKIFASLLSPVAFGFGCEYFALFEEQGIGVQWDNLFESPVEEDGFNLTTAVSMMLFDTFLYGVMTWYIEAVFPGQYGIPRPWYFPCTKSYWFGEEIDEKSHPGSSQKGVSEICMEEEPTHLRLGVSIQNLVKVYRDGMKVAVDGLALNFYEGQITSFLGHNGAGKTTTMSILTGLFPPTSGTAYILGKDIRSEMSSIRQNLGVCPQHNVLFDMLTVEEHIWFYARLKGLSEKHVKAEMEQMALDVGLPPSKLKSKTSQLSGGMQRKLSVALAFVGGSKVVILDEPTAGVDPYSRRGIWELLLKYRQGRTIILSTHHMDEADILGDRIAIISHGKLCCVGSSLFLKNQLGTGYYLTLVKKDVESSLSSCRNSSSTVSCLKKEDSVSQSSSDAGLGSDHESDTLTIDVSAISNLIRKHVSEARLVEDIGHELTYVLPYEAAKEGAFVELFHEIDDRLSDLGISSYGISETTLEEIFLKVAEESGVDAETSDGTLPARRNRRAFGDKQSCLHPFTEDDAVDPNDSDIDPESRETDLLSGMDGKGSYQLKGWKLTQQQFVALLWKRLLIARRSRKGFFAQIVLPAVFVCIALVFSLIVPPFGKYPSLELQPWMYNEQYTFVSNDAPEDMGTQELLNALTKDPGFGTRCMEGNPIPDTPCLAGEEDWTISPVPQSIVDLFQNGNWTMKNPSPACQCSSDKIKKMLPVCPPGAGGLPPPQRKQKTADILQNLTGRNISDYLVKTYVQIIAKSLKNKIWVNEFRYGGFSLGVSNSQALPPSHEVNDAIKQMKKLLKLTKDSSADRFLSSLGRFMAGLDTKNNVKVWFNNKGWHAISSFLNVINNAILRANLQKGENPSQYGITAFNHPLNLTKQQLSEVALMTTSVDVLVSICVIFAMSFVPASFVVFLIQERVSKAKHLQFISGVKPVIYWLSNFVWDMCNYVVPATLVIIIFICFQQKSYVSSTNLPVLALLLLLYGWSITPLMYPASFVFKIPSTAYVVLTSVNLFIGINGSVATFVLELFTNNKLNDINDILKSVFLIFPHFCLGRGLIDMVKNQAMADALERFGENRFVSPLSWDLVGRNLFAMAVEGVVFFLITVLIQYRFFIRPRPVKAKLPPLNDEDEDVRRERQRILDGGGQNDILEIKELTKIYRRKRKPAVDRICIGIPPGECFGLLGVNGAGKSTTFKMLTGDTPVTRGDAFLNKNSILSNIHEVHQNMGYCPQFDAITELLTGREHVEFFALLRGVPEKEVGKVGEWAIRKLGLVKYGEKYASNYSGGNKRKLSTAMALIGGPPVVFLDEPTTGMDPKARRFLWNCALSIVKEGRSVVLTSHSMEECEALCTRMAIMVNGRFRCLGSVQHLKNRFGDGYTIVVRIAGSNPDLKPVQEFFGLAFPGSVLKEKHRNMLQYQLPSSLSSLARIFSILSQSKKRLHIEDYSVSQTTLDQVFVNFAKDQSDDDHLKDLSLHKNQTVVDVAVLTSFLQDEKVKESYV

Question: What does the source list for “EVRSKLEEWFAAFREFAEEFLARLKS (ATI-5261 amphipathic alpha-helix polypeptide core sequence selectively binds HDL, high-affinity ligand for ATP-binding cassette transporter A1 (ABCA1), ABCA1-lipid cholesterol efflux, ABCA1-stablization, anti-oxidant and anti- inflammatory activity) [SEQ ID NO:4]”?
Answer: increase in Apo A-I-mediated cholesterol efflux after pretreatment (J774 macrophages): 40%; persistence of effects [1]: up to 48 h; increase in fecal sterol secretion ([1]; 8 and 24 h): greater than 2 fold; increase in macrophage derived [3H]cholesterol in plasma ([1]; 8 and 24 hour post-injection, vs saline): 2 fold; serum IL-6 versus saline (in words) (Interleukin-6; mouse, in vivo): lowered levels of the inflammatory cytokine IL-6; lower serum levels of IL-6 (Interleukin-6; once daily IP, vs saline, after 18 weeks Western diet): about 68%; ABCA1 protein in cell lysates after cAMP withdrawal (ABCA1): prevented the disappearance of ABCA1 protein
